Source: PubChem BioAssay (NCI)
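Abbreviation: GI50, concentration required for 50% inhibition of growth. TGI: total growth inhibition.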

What was measured:
Experiment in all cases: growth of human tumour cells (NCI), 384-well format
786-0 renal = test system: 786-0 renal
A498 renal = test system: A498 renal
A549 NSCLC = test system: A549 NSCLC
ACHN renal = test system: ACHN renal
BT-549 breast = test system: BT-549 breast
CAKI-1 renal = test system: CAKI-1 renal
CCRF-CEM leukemia = test system: CCRF-CEM leukemia
COLO 205 colon = test system: COLO 205 colon
DU-145 prostate = test system: DU-145 prostate
EKVX NSCLC = test system: EKVX NSCLC
HCC-2998 colon = test system: HCC-2998 colon
HCT-15 colon = test system: HCT-15 colon
HL-60(TB) leukemia = test system: HL-60(TB) leukemia
HOP-62 NSCLC = test system: HOP-62 NSCLC
HOP-92 NSCLC = test system: HOP-92 NSCLC
HS 578T breast = test system: HS 578T breast
HT29 colon = test system: HT29 colon
IGROV1 ovarian = test system: IGROV1 ovarian
KM12 colon = test system: KM12 colon
M14 melanoma = test system: M14 melanoma
MALME-3M melanoma = test system: MALME-3M melanoma
MCF7 breast = test system: MCF7 breast
MDA-MB-231 breast = test system: MDA-MB-231 breast
MDA-MB-435 melanoma = test system: MDA-MB-435 melanoma
MDA-MB-468 breast = test system: MDA-MB-468 breast
MOLT-4 leukemia = test system: MOLT-4 leukemia
NCI-H226 lung = test system: NCI-H226 lung
NCI-H23 lung = test system: NCI-H23 lung
NCI-H322M lung = test system: NCI-H322M lung
NCI-H460 NSCLC = test system: NCI-H460 NSCLC
NCI-H522 lung = test system: NCI-H522 lung
NCI/ADR-RES ovarian = test system: NCI/ADR-RES ovarian
OVCAR-3 ovarian = test system: OVCAR-3 ovarian
OVCAR-4 ovarian = test system: OVCAR-4 ovarian
OVCAR-5 ovarian = test system: OVCAR-5 ovarian
OVCAR-8 ovarian = test system: OVCAR-8 ovarian
PC-3 prostate = test system: PC-3 prostate
RPMI-8226 leukemia = test system: RPMI-8226 leukemia
RXF 393 renal = test system: RXF 393 renal
SF-268 CNS = test system: SF-268 CNS
SF-295 CNS = test system: SF-295 CNS
SF-539 CNS = test system: SF-539 CNS
SK-MEL-2 melanoma = test system: SK-MEL-2 melanoma
SK-MEL-28 melanoma = test system: SK-MEL-28 melanoma
SK-MEL-5 melanoma = test system: SK-MEL-5 melanoma
SK-OV-3 ovarian = test system: SK-OV-3 ovarian
SN12C renal = test system: SN12C renal
SNB-19 CNS = test system: SNB-19 CNS
SNB-75 CNS = test system: SNB-75 CNS
SR leukemia = test system: SR leukemia
SW-620 colon = test system: SW-620 colon
T-47D breast = test system: T-47D breast
TK-10 renal = test system: TK-10 renal
U251 glioblastoma = test system: U251 glioblastoma
UACC-257 melanoma = test system: UACC-257 melanoma
UACC-62 melanoma = test system: UACC-62 melanoma

CN(C)CCNC(=O)c1cccc2cc3ccccc3nc12
GI50 (786-0 renal): 1.07 µM | TGI (786-0 renal): 3.04 µM | GI50 (A498 renal): 0.539 µM | TGI (A498 renal): 2 µM | GI50 (A549 NSCLC): 0.619 µM | TGI (A549 NSCLC): 1.9 µM | GI50 (ACHN renal): 0.961 µM | TGI (ACHN renal): 2.28 µM | GI50 (BT-549 breast): 0.532 µM | TGI (BT-549 breast): 1.68 µM | GI50 (CAKI-1 renal): 1.02 µM | TGI (CAKI-1 renal): 2.49 µM | GI50 (CCRF-CEM leukemia): 0.246 µM | TGI (CCRF-CEM leukemia): 0.673 µM | GI50 (COLO 205 colon): 0.336 µM | TGI (COLO 205 colon): 0.651 µM | GI50 (DU-145 prostate): 1.52 µM | TGI (DU-145 prostate): 3.12 µM | GI50 (EKVX NSCLC): 1.74 µM | TGI (EKVX NSCLC): 3.67 µM | GI50 (HCC-2998 colon): 1.46 µM | TGI (HCC-2998 colon): 2.86 µM | GI50 (HCT-15 colon): 0.628 µM | TGI (HCT-15 colon): 2.02 µM | GI50 (HL-60(TB) leukemia): 0.252 µM | TGI (HL-60(TB) leukemia): 0.462 µM | GI50 (HOP-62 NSCLC): 0.494 µM | TGI (HOP-62 NSCLC): 1.85 µM | GI50 (HOP-92 NSCLC): 0.688 µM | TGI (HOP-92 NSCLC): 2.15 µM | GI50 (HS 578T breast): 0.287 µM | TGI (HS 578T breast): 0.883 µM | GI50 (HT29 colon): 0.996 µM | TGI (HT29 colon): 2.21 µM | GI50 (IGROV1 ovarian): 1.14 µM | TGI (IGROV1 ovarian): 2.46 µM | GI50 (KM12 colon): 0.862 µM | TGI (KM12 colon): 2.44 µM | GI50 (M14 melanoma): 1.14 µM | TGI (M14 melanoma): 2.38 µM | GI50 (MALME-3M melanoma): 0.932 µM | TGI (MALME-3M melanoma): 2.11 µM | GI50 (MCF7 breast): 1.12 µM | TGI (MCF7 breast): 4.17 µM | GI50 (MDA-MB-231 breast): 0.958 µM | TGI (MDA-MB-231 breast): 2.22 µM | GI50 (MDA-MB-435 melanoma): 1.64 µM | TGI (MDA-MB-435 melanoma): 3.23 µM | GI50 (MDA-MB-468 breast): 0.411 µM | TGI (MDA-MB-468 breast): 0.791 µM | GI50 (MOLT-4 leukemia): 0.169 µM | TGI (MOLT-4 leukemia): 0.31 µM | GI50 (NCI-H226 lung): 0.898 µM | TGI (NCI-H226 lung): 2.44 µM | GI50 (NCI-H23 lung): 1.26 µM | TGI (NCI-H23 lung): 2.57 µM | GI50 (NCI-H322M lung): 1.74 µM | TGI (NCI-H322M lung): 3.53 µM | GI50 (NCI-H460 NSCLC): 0.375 µM | TGI (NCI-H460 NSCLC): 1.25 µM | GI50 (NCI-H522 lung): 1.24 µM | TGI (NCI-H522 lung): 2.51 µM | GI50 (NCI/ADR-RES ovarian): 0.876 µM | TGI (NCI/ADR-RES ovarian): 2.27 µM | GI50 (OVCAR-3 ovarian): 1.34 µM | TGI (OVCAR-3 ovarian): 2.81 µM | GI50 (OVCAR-4 ovarian): 1.79 µM | TGI (OVCAR-4 ovarian): 3.61 µM | GI50 (OVCAR-5 ovarian): 1.44 µM | TGI (OVCAR-5 ovarian): 3.69 µM | GI50 (OVCAR-8 ovarian): 0.611 µM | TGI (OVCAR-8 ovarian): 1.84 µM | GI50 (PC-3 prostate): 1.46 µM | TGI (PC-3 prostate): 3.29 µM | GI50 (RPMI-8226 leukemia): 0.506 µM | TGI (RPMI-8226 leukemia): 1.49 µM | GI50 (RXF 393 renal): 1.12 µM | TGI (RXF 393 renal): 2.36 µM | GI50 (SF-268 CNS): 1.15 µM | TGI (SF-268 CNS): 2.47 µM | GI50 (SF-295 CNS): 0.974 µM | TGI (SF-295 CNS): 2.38 µM | GI50 (SF-539 CNS): 0.449 µM | TGI (SF-539 CNS): 1.51 µM | GI50 (SK-MEL-2 melanoma): 3.28 µM | TGI (SK-MEL-2 melanoma): 4.78 µM | GI50 (SK-MEL-28 melanoma): 1.62 µM | TGI (SK-MEL-28 melanoma): 3.01 µM | GI50 (SK-MEL-5 melanoma): 1.18 µM | TGI (SK-MEL-5 melanoma): 2.42 µM | GI50 (SK-OV-3 ovarian): 1.2 µM | TGI (SK-OV-3 ovarian): 3.29 µM | GI50 (SN12C renal): 1.26 µM | TGI (SN12C renal): 2.74 µM | GI50 (SNB-19 CNS): 0.784 µM | TGI (SNB-19 CNS): 2.69 µM | GI50 (SNB-75 CNS): 0.806 µM | TGI (SNB-75 CNS): 2.13 µM | GI50 (SR leukemia): 0.198 µM | TGI (SR leukemia): 0.349 µM | GI50 (SW-620 colon): 0.718 µM | TGI (SW-620 colon): 1.99 µM | GI50 (T-47D breast): 2.05 µM | TGI (T-47D breast): 4.09 µM | GI50 (TK-10 renal): 1.25 µM | TGI (TK-10 renal): 2.95 µM | GI50 (U251 glioblastoma): 0.741 µM | TGI (U251 glioblastoma): 2.68 µM | GI50 (UACC-257 melanoma): 1.65 µM | TGI (UACC-257 melanoma): 3.05 µM | GI50 (UACC-62 melanoma): 1 µM | TGI (UACC-62 melanoma): 2.2 µM
